Measured values as given in patent publication US20150368220A1, “PHARMACEUTICAL COMPOSITION FOR TREATING OR PREVENTING STRESS URINARY INCONTINENCE OR MIXED URINARY INCONTINENCE, AND METHOD FOR SCREENING COMPOUND COMPRISED IN SAID PHARMACEUTICAL COMPOSITION” (Astellas Pharma Inc., priority 2012, published 2015).

Experiments:
SD female rat [1] = assay: Effect on urethral pressure, perfusion method (Example 4); type: in vivo
Protocol: An SD female rat was anesthetized with urethane and allowed to undergo laparotomy, the bladder dome was then incised, and a catheter having a barb at the tip was inserted toward the urethra from the bladder, and ligated and fixed such that the tip of the catheter was positioned around the proximal urethra. Physiological saline was injected at a predetermined flow rate into the urethra through the catheter and the urethral pressure was measured with a pressure transducer. After the urethral pressure was stabilized, compounds dissolved in physiological saline, or physiological saline containing 5% N,N-dimethylacetamide(DMA) and 0.5% Cremophor were intravenously administered at a dose of 1 μg/kg, 10 μg/kg, 100 μg/kg, or 1000 μg/kg and a change in the urethral pressure was measured.

human MT1 receptor [2] = biological target: T1, human MT1 receptor (Homo sapiens, UniProt P48039); assay: Intracellular Ca2+ concentration by FLIPR in human MT1 receptor expressing cells (Example 2); type: cell-based; conditions: human MT1 receptor expressing HEK293 cells, 10^-5 M to 10^-12 M, FIGS. 2 and 4
T1 construct: expressed in transfected cells; vector pCDNA3.1/Zeo; co-transfected with a Gq/i chimeric G protein expression vector
T1 sequence (P48039 whole entry): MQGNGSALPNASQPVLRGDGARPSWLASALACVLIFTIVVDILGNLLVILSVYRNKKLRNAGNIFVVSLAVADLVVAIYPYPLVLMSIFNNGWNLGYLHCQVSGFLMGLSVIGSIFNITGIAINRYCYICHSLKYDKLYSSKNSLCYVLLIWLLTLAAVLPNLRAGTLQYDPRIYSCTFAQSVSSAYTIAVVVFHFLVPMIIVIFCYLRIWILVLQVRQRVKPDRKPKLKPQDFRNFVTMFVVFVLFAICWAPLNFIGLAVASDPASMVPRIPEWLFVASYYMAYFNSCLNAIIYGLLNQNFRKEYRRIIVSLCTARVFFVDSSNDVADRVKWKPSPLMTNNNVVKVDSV
Protocol: (§1) The expression vectors for human MT1 and MT2 receptors were introduced into HEK293 cells, together with a Gq/i chimeric G protein expression vector, respectively. The incorporation was carried out in accordance with instructions, using a Lipofectoamine (registered trademark) 2000 Reagent (Invitrogen Inc.). Using Zeocin and hygromycin as a resistant agent, the cells were cultured for 15 days in the presence of 0.02 mg/mL and 0.05 mg/mL of the agents, respectively, thereby acquiring a drug-resistant clone.
(§2) The respective stably expressing cells were dispensed into 96 wells in a poly-D-lysine-coated plate (Falcon) the day before the experiment to give 40,000 cells/well, and cultured in a DMEM (Invitrogen Inc.) medium containing 10% FBS at 37° C. and 5% CO2 overnight. The medium was replaced with a loading buffer (a washing solution containing 4 μM Fluo-4AM (Dojindo Co.) (Hank's balanced salt solution (HBSS), 20 mM HEPES-NaOH, 2.5 mM probenecid)) and cultured at 37° C. and 5% CO2 for 1 hour.

human MT2 receptor [3] = biological target: T2, human MT2 receptor (Homo sapiens, UniProt P49286); assay: Intracellular Ca2+ concentration by FLIPR in human MT2 receptor expressing cells (Example 2); type: cell-based; conditions: human MT2 receptor expressing HEK293 cells, 10^-5 M to 10^-12 M, FIGS. 3 and 5
T2 construct: expressed in transfected cells; vector pCDNA3.1/Zeo; co-transfected with a Gq/i chimeric G protein expression vector
T2 sequence (P49286 1-362): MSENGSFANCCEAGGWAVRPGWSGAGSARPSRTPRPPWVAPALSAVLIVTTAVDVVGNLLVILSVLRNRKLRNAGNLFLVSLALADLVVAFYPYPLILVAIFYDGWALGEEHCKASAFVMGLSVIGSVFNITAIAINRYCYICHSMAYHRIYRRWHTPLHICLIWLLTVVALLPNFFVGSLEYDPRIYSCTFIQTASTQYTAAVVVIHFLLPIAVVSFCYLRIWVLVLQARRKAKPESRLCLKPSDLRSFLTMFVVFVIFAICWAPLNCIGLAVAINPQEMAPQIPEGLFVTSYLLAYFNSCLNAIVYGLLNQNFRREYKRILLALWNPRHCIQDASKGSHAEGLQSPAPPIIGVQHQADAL
Protocol: as §1, §2

isolated urethra [4] = assay: Urethra contracting action using isolated urethra (Example 3); conditions: isolated urethra of SD female rat, cumulative 10^-5 M to 10^-12 M, FIGS. 6 and 7
Protocol: The urethra was isolated from an SD female rat having a body weight of 100 g to 500 g. The isolated urethra was incised vertically and then made into strip-shaped specimens having a width of about 3 mm. The specimens were suspended in a 10 mL tissue bus filled with a Krebs—Henseleit solution (pH 7.4) in the circular muscle direction. The Krebs—Henseleit solution was aerated at 95% O2 and 5% CO2, and warmed at 37° C. The resting tension was set to 0.5 g and the isometric contraction was recorded. After the resting tension was stabilized, a 10 μM phenylephrine solution was added thereto to cause contraction.

human MT1 receptor [5] = biological target: T1, human MT1 receptor; assay: Effect of luzindole on ramelteon-induced intracellular Ca2+ increase in human MT1 receptor expressing cells (Example 5); type: cell-based; conditions: for intracellular Ca^2+ concentration increasing action: action by 10^-6 M ramelteon = 100%
Protocol: (§3) The respective stably expressing cells were dispensed into 96 wells in a poly-D-lysine-coated plate (Falcon) the day before the experiment to give 40,000 cells/well, and cultured in a DMEM (Invitrogen Inc.) medium containing 10% FBS at 37° C. and 5% CO2 overnight. The medium was replaced with a loading buffer (a washing solution containing 4 μM Fluo-4AM (Dojindo Co.) (Hank's balanced salt solution (HBSS), 20 mM HEPES-NaOH, 2.5 mM probenecid)) and cultured at 37° C. and 5% CO2 for 1 hour. Thereafter, the cells were washed with a plate washer (EL×405, BIO-TEK Instrument Inc.) having a washing solution set therein, and set in an intracellular Ca concentration measuring system (FLIPR (registered trademark), Molecular Device Inc.). Luzindole was preliminarily dissolved in a washing solution, diluted to a final concentration of 10^−5 M to 10^−7 M, and left to stand at room temperature for 5 minutes. Ramelteon was preliminarily dissolved in a washing solution and diluted to a final concentration of 10^−5 M to 10^−11 M, the resultant was set in an FLIPR (registered trademark) device together with the cells after leaving to stand for 5 minutes after the addition of luzindole, the cells were added to the device, and a change in the intracellular Ca^2+ concentration at that time was measured.

human MT2 receptor [6] = biological target: T2, human MT2 receptor; assay: Effect of luzindole on ramelteon-induced intracellular Ca2+ increase in human MT2 receptor expressing cells (Example 5); type: cell-based; conditions: for intracellular Ca^2+ concentration increasing action: action by 10^-6 M ramelteon = 100%
Protocol: as §3

isolated urethra [7] = assay: Effect of luzindole on urethra contracting action of ramelteon in isolated urethra (Example 5); design: species or system rat; conditions: for isolated urethra contracting action: contraction by 1 μM ramelteon at first time = 100%
Protocol: The urethra was isolated from an SD female rat having a body weight of 100 g to 500 g. The isolated urethra was incised vertically and then made into strip-shaped specimens having a width of about 3 mm. The specimens were suspended in a 10 mL tissue bus filled with a Krebs-Henseleit solution (pH 7.4) in the circular muscle direction or the longitudinal muscle direction. […] The resting tension was set to 0.5 g and the isometric contraction was recorded. After the resting tension was stabilized, a 10 μM phenylephrine solution was added thereto to cause contraction. After washing and stabilizing, the compound (ramelteon) was cumulatively added to a final concentration of 10^−5 M to 10^−12 M and the contraction response was measured. After washing and stabilizing, luzindole was added, after 20 minutes, ramelteon was cumulatively added again, and the contraction response was measured.

SD female rat [8] = assay: Effect on urethral pressure, microchip method (Example 4); type: in vivo; conditions: intravenous, anesthetized SD female rat, FIGS. 8 and 9
Description: An SD female rat was anesthetized with urethane and allowed to undergo laparotomy, and then a catheter was mounted in the bladder dome for urine leakage in the bladder. Further, a catheter was mounted in the femoral vein for the administration of a compound and a catheter was mounted in the carotid artery for the measurement of blood pressure described in Example 6 as described later. […] The catheter mounted in the carotid artery was attached to a pressure transducer and the blood pressure was measured.

isolated bladder = assay: Isolated bladder contraction (Example 6); conditions: isolated bladder of SD female rat, cumulative addition
Description: (§4) (1) The bladder and uterus were isolated from an SD female rat having a body weight of 100 g to 500 g. For the isolated bladder, the parts below the parietal region and the triangular portion were resected to make only the body portion into a ring state, and further, one side of the tissue in the ring state was cut to a band-shaped tissue. The bladder in the band shape was isolated parallel to the median axis of the bladder to prepare strip-shaped specimens having a length of about 10 mm and a width of about 3 mm. The specimens were suspended in a 10 mL tissue bus filled with a Krebs-Henseleit solution (pH 7.4) at a resting tension of 0.5 g and the isometric contraction was recorded. For the isolated uterus, the edge portion of the uterus was cut and incised vertically, whereby a strip-shaped specimen having a width of about 6 mm was then prepared. The specimens were suspended in a 10 mL tissue bus filled with a Krebs—Henseleit solution (pH 7.4) at a resting tension of 0.5 g and the isometric contraction was recorded. […] For the bladder specimen, after the resting tension was stabilized, a 60 mM KCl solution or a 10 μM carbachol solution was added thereto to cause contraction. The specimens were washed and stabilized, and then the compounds were cumulatively administered.

isolated uterus = assay: Isolated uterus contraction (Example 6); conditions: isolated uterus of SD female rat, cumulative 10^-5 M to 10^-11 M
Description: as §4

SD female rat [9] = assay: Effect on rat blood pressure (Example 6); type: in vivo; conditions: intravenous, at a dose for increasing the urethral pressure, FIGS. 21 and 22
Description: An SD female rat was anesthetized with urethane and allowed to undergo laparotomy, and then a catheter was mounted in the bladder dome for urine leakage in the bladder. Further, a catheter was mounted in the femoral vein for the administration of a compound and a catheter was mounted in the carotid artery for the measurement of blood pressure described in Example 6 as described later. A microchip transducer catheter (Milar Instruments) was inserted toward the bladder from the external urethral meatus for the measurement of the urethral pressure, and fixed such that the transducer portion was positioned around the portion at which the urethral pressure was maximized (10.0 mm to 15.0 mm from the external urethral meatus). The catheter mounted in the carotid artery was attached to a pressure transducer and the blood pressure was measured.
(2) In the experiment for measuring the urethral pressure in Example 4, the blood pressure was measured simultaneously. After the urethral pressure and the blood pressure were stabilized, the compound was administered and a change in the blood pressure was measured.

[10] = intravenous, anesthetized SD female rat, FIGS. 10 to 14
[11] = final concentration of ramelteon 10^-5 M

`COc1ccc(OC)c(C(O)CN)c1` (stereo not shown) [ST-1059] was tested, and the “urethral pressure increasing action” value (SD female rat [1]; rat, dose 0.01 mg/kg) was 4.9±1.1 mmHg.
With `COc1cc2c([C@@H](C)CNC(C)=O)c[nH]c2cc1Cl` [TIK-301, N-[(2R)-2-(6-chloro-5-methoxy-1H-indol-3-yl)propyl]acetamide] the “intracellular Ca^2+ concentration (melatonin receptor activating action)” value (human MT1 receptor [2]) was “increased”, the “intracellular Ca^2+ concentration (melatonin receptor activating action)” value (human MT2 receptor [3]) was “increased” and the urethra contracting action (isolated urethra [4]) was “contracted the isolated urethra”. The “urethral pressure increasing action” value (SD female rat [1]; [10]) was “increased the urethral pressure”.
`COc1ccc2cccc(CCNC(C)=O)c2c1` [agomelatine, N-[2-(7-methoxynaphth-1-yl)ethyl]acetamide] was tested, and the “intracellular Ca^2+ concentration (melatonin receptor activating action)” value (human MT1 receptor [2]) was “increased”, the “intracellular Ca^2+ concentration (melatonin receptor activating action)” value (human MT2 receptor [3]) was “increased” and the urethra contracting action (isolated urethra [4]) was “contracted the isolated urethra”. The “urethral pressure increasing action” value (SD female rat [1]; [10]) was “increased the urethral pressure”.
For `CC(=O)NCCc1c(Cc2ccccc2)[nH]c2ccccc12` [luzindole, N-[2-[2-(phenylmethyl)-1H-indol-3-yl]ethyl]acetamide], the “inhibition of the increase in intracellular Ca^2+ concentration by ramelteon” value (human MT1 receptor [5]; MT1 receptor expressing cells, FIG. 15) was “inhibited”, the “intracellular Ca^2+ concentration increasing action” value (human MT1 receptor [5]; MT1 receptor expressing cells, ramelteon 10^-5 M with 10^-5 M luzindole) was 94% and the “intracellular Ca^2+ concentration increasing action” value (human MT1 receptor [5]; MT1 receptor expressing cells, ramelteon 10^-5 M with 10^-6 M luzindole) was 97%. The “intracellular Ca^2+ concentration increasing action” value (human MT1 receptor [5]; MT1 receptor expressing cells, ramelteon 10^-5 M with 10^-7 M luzindole) was 100%, the “inhibiting action on the MT1 receptor” value (human MT1 receptor [5]; [11]) was “substantially did not exhibit an inhibiting action” and the “inhibition of the increase in intracellular Ca^2+ concentration by ramelteon” value (human MT2 receptor [6]; MT2 receptor expressing cells, FIG. 16) was “inhibited”. The “intracellular Ca^2+ concentration increasing action” value (human MT2 receptor [6]; MT2 receptor expressing cells, ramelteon 10^-5 M with 10^-5 M luzindole) was 52%, the “intracellular Ca^2+ concentration increasing action” value (human MT2 receptor [6]; MT2 receptor expressing cells, ramelteon 10^-5 M with 10^-6 M luzindole) was 60% and the “intracellular Ca^2+ concentration increasing action” value (human MT2 receptor [6]; MT2 receptor expressing cells, ramelteon 10^-5 M with 10^-7 M luzindole) was 62%. For the same molecule, the “inhibiting action, MT2 versus MT1 receptor expressing cells” value (human MT2 receptor [6]; comparison of MT2 and MT1 receptor expressing cells) was “stronger in the MT2 receptor expressing cells than in the MT1 receptor expressing cells”, the “inhibiting action on isolated urethra contracting action” value (isolated urethra [7]; [11]) was “substantially did not exhibit an inhibiting action” and the “isolated urethra contracting action” value (isolated urethra [7]; ramelteon 10^-5 M with 10^-5 M luzindole) was 78%. The “isolated urethra contracting action” value (isolated urethra [7]; ramelteon 10^-5 M with 10^-6 M luzindole) was 94%, the “isolated urethra contracting action” value (isolated urethra [7]; ramelteon 10^-5 M with 10^-7 M luzindole) was 101% and the “inhibition of isolated urethra contracting action by ramelteon” value (isolated urethra [7]; treatment with luzindole 10^-7 M to 10^-5 M, FIG. 17) was “inhibited in a concentration-dependent manner”.
With `COc1ccc2[nH]cc(CCNC(C)=O)c2c1` [melatonin] the urethra contracting action (isolated urethra [4]) was “contracted the isolated urethra”, the “urethral pressure increasing action” value (SD female rat [8]) was “increased the urethral pressure” and the “urethral pressure increasing action” value (SD female rat [1]; [10]) was “increased the urethral pressure”. For the same molecule, the “contraction action on the isolated bladder” value (isolated bladder) was “did not exhibit a contraction action”, the “contraction action on the isolated uterus” value (isolated uterus) was “did not exhibit a contraction action” and the “effect on blood pressure (mean blood pressure)” value (SD female rat [9]) was “did not increase the blood pressure”.
In the case of `CCC(=O)NC[C@@H]1C[C@H]1c1cccc2c1CCO2` [tasimelteon, (−)-(trans)-N-{[2-(2,3-dihydrobenzofuran-4-yl)cyclopropan-l-yl]methyl}propanamide], the “intracellular Ca^2+ concentration (melatonin receptor activating action)” value (human MT1 receptor [2]) is reported as “increased”, the “intracellular Ca^2+ concentration (melatonin receptor activating action)” value (human MT2 receptor [3]) is reported as “increased” and the urethra contracting action (isolated urethra [4]) is reported as “contracted the isolated urethra”. For the same molecule, the “urethral pressure increasing action” value (SD female rat [1]; [10]) was “increased the urethral pressure”.
